Results taken from the CheMixHub ionic liquid set.
± gives the uncertainty stated by the source.

Test: xn = mol fraction of the nth substance listed

OC1OC[C@@H](O)[C@H](O)[C@H]1O (stereo partly specified) + O + CCCCCCCCn1cc[n+](C)c1.[Br-]
298.15 K, 101 kPa
Settings	viscosity [mPa·s]
x1 = 0.0001923, x3 = 0.001831	0.966 ± 0.014
x1 = 0.0001932, x3 = 0.003598	1.027 ± 0.015
x1 = 0.0002045, x3 = 0.00713	1.178 ± 0.015
x1 = 0.0002136, x3 = 0.005442	1.104 ± 0.015
x1 = 0.0003697, x3 = 0.00183	0.97 ± 0.014
x1 = 0.0003826, x3 = 0.003597	1.03 ± 0.015
x1 = 0.0004154, x3 = 0.005441	1.11 ± 0.015
x1 = 0.00056, x3 = 0.00183	0.976 ± 0.014
x1 = 0.0005832, x3 = 0.003596	1.035 ± 0.015
x1 = 0.000592, x3 = 0.00544	1.115 ± 0.015
x1 = 0.0006052, x3 = 0.007127	1.189 ± 0.016
x1 = 0.0007465, x3 = 0.00183	0.981 ± 0.014
x1 = 0.0007705, x3 = 0.003595	1.04 ± 0.015
x1 = 0.0007917, x3 = 0.005439	1.121 ± 0.015
x1 = 0.0008153, x3 = 0.007126	1.195 ± 0.016
x1 = 0.0009407, x3 = 0.003595	1.044 ± 0.015
x1 = 0.0009495, x3 = 0.001829	0.985 ± 0.015
x1 = 0.0009701, x3 = 0.005438	1.127 ± 0.015
x1 = 0.0009957, x3 = 0.007124	1.202 ± 0.016
x1 = 0.001112, x3 = 0.001829	0.989 ± 0.015
x1 = 0.001145, x3 = 0.003594	1.051 ± 0.015
x1 = 0.00115, x3 = 0.005437	1.13 ± 0.015
x1 = 0.001216, x3 = 0.007123	1.207 ± 0.016
x1 = 0.001289, x3 = 0.001829	0.993 ± 0.015
x1 = 0.001332, x3 = 0.003593	1.054 ± 0.015
x1 = 0.00134, x3 = 0.005436	1.135 ± 0.015
x1 = 0.00141, x3 = 0.007121	1.213 ± 0.016
x1 = 0.001459, x3 = 0.001828	0.996 ± 0.015
x1 = 0.00151, x3 = 0.003593	1.059 ± 0.015
x1 = 0.00153, x3 = 0.005435	1.14 ± 0.015
x1 = 0.001602, x3 = 0.00712	1.219 ± 0.016
x1 = 0.001647, x3 = 0.001828	1 ± 0.015
x1 = 0.001708, x3 = 0.003592	1.065 ± 0.015
x1 = 0.001741, x3 = 0.005433	1.147 ± 0.015
x1 = 0.001813, x3 = 0.007119	1.224 ± 0.016

CCCCCCCCCC[n+]1ccn(C)c1.[Cl-] + O
298.15 K, frequency 5e-05 MHz
Settings	electrical conductivity [S/m]
100 kPa, x1 = 0.0002846	0.126 ± 0.069
100 kPa, x1 = 0.0003693	0.163 ± 0.07
100 kPa, x1 = 0.0004125	0.177 ± 0.072
100 kPa, x1 = 0.0004683	0.205 ± 0.071
100 kPa, x1 = 0.0005331	0.235 ± 0.069
100 kPa, x1 = 0.0005997	0.262 ± 0.071
100 kPa, x1 = 0.0006609	0.294 ± 0.068
100 kPa, x1 = 0.0007347	0.32 ± 0.067
100 kPa, x1 = 0.0007922	0.347 ± 0.067
100 kPa, x1 = 0.0008678	0.375 ± 0.059
100 kPa, x1 = 0.000929	0.4 ± 0.053
100 kPa, x1 = 0.0009883	0.424 ± 0.051
100 kPa, x1 = 0.001073	0.44 ± 0.042
100 kPa, x1 = 0.001143	0.446 ± 0.035
100 kPa, x1 = 0.001186	0.45 ± 0.035
100 kPa, x1 = 0.001274	0.458 ± 0.033
100 kPa, x1 = 0.001346	0.467 ± 0.034
100 kPa, x1 = 0.001387	0.471 ± 0.033
100 kPa, x1 = 0.001452	0.479 ± 0.034
100 kPa, x1 = 0.001524	0.489 ± 0.035
100 kPa, x1 = 0.001603	0.493 ± 0.033
100 kPa, x1 = 0.001637	0.497 ± 0.033
101.3 kPa, x1 = 0.04436	4.7 ± 0.2

298.15 K, 101.3 kPa
Settings	electrical conductivity [S/m]
x1 = 6.46e-06	0.00385 ± 4e-05
x1 = 9.55e-06	0.00548 ± 6e-05
x1 = 1.262e-05	0.00708 ± 7e-05
x1 = 1.582e-05	0.00872 ± 9e-05
x1 = 1.894e-05	0.0103 ± 0.0001
x1 = 2.2e-05	0.0118 ± 0.00012
x1 = 2.507e-05	0.01334 ± 0.00013
x1 = 2.8e-05	0.0148 ± 0.00015
x1 = 3.092e-05	0.0162 ± 0.00016
x1 = 3.384e-05	0.0176 ± 0.00018

O=S(=O)([N-]S(=O)(=O)C(F)(F)F)C(F)(F)F.[Li+] + COC(=O)OC
298.1 K, 100 kPa, x1 = 0.333
Settings	electrical conductivity [S/m]	viscosity [mPa·s]
–	0.12 ± 0.01	53.7 ± 1.6

OC1OC[C@@H](O)[C@H](O)[C@H]1O (stereo partly specified) + O + CCCCCCCCCC[n+]1ccn(C)c1.[Br-]
298.15 K, 101 kPa
Settings	viscosity [mPa·s]
x1 = 0.0001909, x3 = 0.001813	0.998 ± 0.015
x1 = 0.0001999, x3 = 0.003572	1.112 ± 0.015
x1 = 0.0002133, x3 = 0.005429	1.247 ± 0.016
x1 = 0.0002286, x3 = 0.007128	1.391 ± 0.017
x1 = 0.0003836, x3 = 0.001812	1.001 ± 0.015
x1 = 0.0003893, x3 = 0.005428	1.254 ± 0.016
x1 = 0.0003978, x3 = 0.003572	1.116 ± 0.015
x1 = 0.000437, x3 = 0.007127	1.398 ± 0.017
x1 = 0.0005688, x3 = 0.001812	1.005 ± 0.015
x1 = 0.0005861, x3 = 0.003571	1.123 ± 0.015
x1 = 0.0005867, x3 = 0.005427	1.262 ± 0.016
x1 = 0.0006133, x3 = 0.007125	1.404 ± 0.017
x1 = 0.0007539, x3 = 0.001812	1.012 ± 0.015
x1 = 0.0007591, x3 = 0.00357	1.129 ± 0.015
x1 = 0.0007841, x3 = 0.005426	1.269 ± 0.016
x1 = 0.0008175, x3 = 0.007124	1.409 ± 0.017
x1 = 0.0009408, x3 = 0.001811	1.018 ± 0.015
x1 = 0.0009549, x3 = 0.00357	1.133 ± 0.015
x1 = 0.0009897, x3 = 0.007123	1.418 ± 0.017
x1 = 0.000999, x3 = 0.005425	1.276 ± 0.016
x1 = 0.001114, x3 = 0.003569	1.136 ± 0.015
x1 = 0.001117, x3 = 0.001811	1.021 ± 0.015
x1 = 0.001181, x3 = 0.005424	1.28 ± 0.016
x1 = 0.001198, x3 = 0.007121	1.427 ± 0.017
x1 = 0.00132, x3 = 0.001811	1.023 ± 0.015
x1 = 0.001321, x3 = 0.003568	1.143 ± 0.015
x1 = 0.00137, x3 = 0.005423	1.286 ± 0.016
x1 = 0.001406, x3 = 0.00712	1.433 ± 0.017
x1 = 0.00149, x3 = 0.00181	1.03 ± 0.015
x1 = 0.001525, x3 = 0.003568	1.149 ± 0.015
x1 = 0.001559, x3 = 0.005422	1.292 ± 0.016
x1 = 0.001622, x3 = 0.007118	1.441 ± 0.017
x1 = 0.001679, x3 = 0.00181	1.037 ± 0.015
x1 = 0.001728, x3 = 0.003567	1.158 ± 0.015
x1 = 0.001768, x3 = 0.005421	1.3 ± 0.016
x1 = 0.001812, x3 = 0.007117	1.449 ± 0.017
